Data set [1] relates to Chikungunya virus. The experiment in a line: Antiviral activity against CHIKV S27 in green monkey Vero 76 cells assessed as reduction in virus-induced cytopathic effect. The data set is classed as functional, organism-based. The conditions noted are these: S27, Vero 76. A general note: Damage to the host cells serves as the signal in cytopathic effect assays.
A short description of data set [2]: C0 in C57BL/6 mouse plasma at 2.5 mg/kg, iv measured upto 24 hrs post dosing by LC-MS/MS. Type of data set: ADME, organism-based. The conditions noted are these: in vivo.
Data set [3] can be described thus: Half life in C57BL/6 mouse plasma at 10 mg/kg, po measured […] post dosing by LC-MS/MS. Type of data set: ADME, organism-based. As to conditions: in vivo.
Data set [4] is described as follows: Tmax in C57BL/6 mouse plasma at 10 mg/kg, po measured 4 hrs post dosing by LC-MS/MS. The data set is classed as ADME, organism-based. As to conditions: in vivo.
Data set [5] is described as follows: MRT in C57BL/6 mouse plasma at 10 mg/kg, po measured upto 24 hrs post dosing by LC-MS/MS. Type of data set: ADME, organism-based. The conditions noted are these: in vivo.
Data set [6] in a line: Toxicity in Sham-infected C57BL/6 mouse model assessed as footpad swelling at 300 mg/kg/day, ip measured after 6 days post infection (reference value: -4.6+/-5.5). Type of data set: organism-based. As to conditions: in vivo, 144 h, time 6 day.
Data set [7] concerns Chikungunya virus. The experiment in a line: Antiviral activity against CHIKV infected in C57BL/6 mouse assessed as mouse survival at 300 mg/kg/day, ip measured after 6 days post infection. The data set is classed as functional, organism-based. As to conditions: time 6.0 day.
Data set [8] concerns Chikungunya virus. The experiment in a line: Antiviral activity against CHIKV infected in C57BL/6 mouse assessed as mouse survival at 100 mg/kg/day, ip measured after 6 days post infection. The data set is classed as functional, organism-based. The conditions noted are these: time 6.0 day.
Data set [9] has as its system Chikungunya virus. The experiment in a line: Antiviral activity against CHIKV infected in C57BL/6 mouse assessed as footpad swelling at 100 mg/kg/day, ip measured after 6 days post infection (reference value: 40.9+/-12.4). Type of data set: functional. As to conditions: time 6 day.
Data set [10] concerns Chikungunya virus. The experiment in a line: Antiviral activity against CHIKV infected in C57BL/6 mouse assessed as virus titers at 100 mg/kg/day, ip measured after 6 days post infection (reference value: 5.3+/0.3). As to conditions: time 6 day. Type of data set: functional.
The nature of data set [11]: Toxicity in C57BL/6 mouse model assessed as effect on BUN level at 300 mg/kg/day, ip measured after 6 days post infection (reference value: 20 to 30). Type of data set: organism-based. As to conditions: in vivo, 144 h, time 6 day.
The nature of data set [12]: Toxicity in C57BL/6 mouse model assessed as effect on CREAT level at 300 mg/kg/day, ip measured after 6 days post infection (reference value: 0.39 to 0.43). The data set is classed as organism-based. The conditions noted are these: in vivo, 144 h, time 6 day.
In data set [13] the target is Polyprotein P1234 (Chikungunya virus (strain S27-African prototype) (CHIKV)) (UniProt Q8JUX6). As to conditions: dose 0.27-600 µM.
Sequence of Polyprotein P1234 (Chikungunya virus (strain S27-African prototype) (CHIKV)) (Q8JUX6 whole entry): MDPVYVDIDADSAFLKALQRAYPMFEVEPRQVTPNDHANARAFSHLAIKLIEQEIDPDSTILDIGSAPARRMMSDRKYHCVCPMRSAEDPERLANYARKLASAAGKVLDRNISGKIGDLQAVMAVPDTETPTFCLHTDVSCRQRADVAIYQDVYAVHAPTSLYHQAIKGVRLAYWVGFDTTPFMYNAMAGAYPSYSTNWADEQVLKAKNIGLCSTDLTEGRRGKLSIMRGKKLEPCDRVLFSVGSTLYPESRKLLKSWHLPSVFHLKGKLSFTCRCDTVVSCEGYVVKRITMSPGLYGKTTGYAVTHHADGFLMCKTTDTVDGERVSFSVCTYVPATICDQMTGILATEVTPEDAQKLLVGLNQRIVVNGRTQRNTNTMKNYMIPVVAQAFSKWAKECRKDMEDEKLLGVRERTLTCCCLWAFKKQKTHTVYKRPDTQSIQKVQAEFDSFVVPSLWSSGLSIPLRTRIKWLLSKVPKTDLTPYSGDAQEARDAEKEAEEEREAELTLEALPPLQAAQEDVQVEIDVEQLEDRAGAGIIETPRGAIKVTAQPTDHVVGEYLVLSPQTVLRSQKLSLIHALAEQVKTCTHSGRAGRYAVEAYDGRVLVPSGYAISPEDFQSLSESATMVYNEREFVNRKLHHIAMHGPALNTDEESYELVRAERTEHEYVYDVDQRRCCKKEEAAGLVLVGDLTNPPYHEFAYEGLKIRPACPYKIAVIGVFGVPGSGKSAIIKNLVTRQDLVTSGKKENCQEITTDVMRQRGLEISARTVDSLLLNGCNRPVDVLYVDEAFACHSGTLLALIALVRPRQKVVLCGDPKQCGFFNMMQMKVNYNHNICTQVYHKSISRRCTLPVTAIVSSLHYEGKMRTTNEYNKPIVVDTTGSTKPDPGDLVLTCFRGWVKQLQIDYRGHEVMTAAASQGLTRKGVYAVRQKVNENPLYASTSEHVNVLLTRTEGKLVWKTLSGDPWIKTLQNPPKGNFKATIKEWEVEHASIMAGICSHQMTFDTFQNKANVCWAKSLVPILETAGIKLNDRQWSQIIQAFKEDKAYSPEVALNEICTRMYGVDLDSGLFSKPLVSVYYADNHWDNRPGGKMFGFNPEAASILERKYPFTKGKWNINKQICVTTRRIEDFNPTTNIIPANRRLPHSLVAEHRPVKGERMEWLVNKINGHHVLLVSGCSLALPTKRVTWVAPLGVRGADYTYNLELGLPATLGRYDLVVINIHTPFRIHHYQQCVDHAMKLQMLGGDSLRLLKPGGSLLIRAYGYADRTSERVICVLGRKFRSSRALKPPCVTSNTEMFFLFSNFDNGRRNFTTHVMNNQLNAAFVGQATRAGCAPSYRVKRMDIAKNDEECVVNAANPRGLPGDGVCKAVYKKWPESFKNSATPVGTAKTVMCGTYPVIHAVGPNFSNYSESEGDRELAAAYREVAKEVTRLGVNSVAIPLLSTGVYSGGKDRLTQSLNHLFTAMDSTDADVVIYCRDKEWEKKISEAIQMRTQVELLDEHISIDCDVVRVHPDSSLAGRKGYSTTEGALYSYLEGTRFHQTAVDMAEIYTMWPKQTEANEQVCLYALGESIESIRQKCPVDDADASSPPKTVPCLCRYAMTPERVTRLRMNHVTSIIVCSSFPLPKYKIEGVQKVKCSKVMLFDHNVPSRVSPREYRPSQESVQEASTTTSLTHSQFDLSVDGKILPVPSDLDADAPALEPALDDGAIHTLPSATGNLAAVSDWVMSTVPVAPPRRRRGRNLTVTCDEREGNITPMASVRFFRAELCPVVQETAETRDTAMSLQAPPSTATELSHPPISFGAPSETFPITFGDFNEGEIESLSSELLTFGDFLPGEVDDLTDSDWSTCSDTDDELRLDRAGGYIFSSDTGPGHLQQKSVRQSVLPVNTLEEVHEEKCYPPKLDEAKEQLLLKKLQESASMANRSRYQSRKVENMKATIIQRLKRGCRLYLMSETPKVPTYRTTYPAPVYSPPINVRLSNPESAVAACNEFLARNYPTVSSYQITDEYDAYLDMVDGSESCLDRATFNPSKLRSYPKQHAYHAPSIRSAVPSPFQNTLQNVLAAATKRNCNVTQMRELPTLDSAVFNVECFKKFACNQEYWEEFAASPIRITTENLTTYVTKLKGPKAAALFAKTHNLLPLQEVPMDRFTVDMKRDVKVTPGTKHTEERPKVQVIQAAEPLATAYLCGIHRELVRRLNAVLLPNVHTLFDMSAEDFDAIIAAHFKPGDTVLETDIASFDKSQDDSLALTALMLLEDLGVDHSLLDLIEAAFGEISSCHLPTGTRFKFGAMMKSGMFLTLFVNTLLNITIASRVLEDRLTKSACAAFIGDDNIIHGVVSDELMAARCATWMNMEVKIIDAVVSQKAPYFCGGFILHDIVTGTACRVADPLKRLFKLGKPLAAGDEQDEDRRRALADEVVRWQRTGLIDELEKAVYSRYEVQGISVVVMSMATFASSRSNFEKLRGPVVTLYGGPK
The subject of data set [14] is Chikungunya virus. Type of data set: functional, organism-based. As to conditions: dose 300.0 mg/kg/day, time 5-6 day.
Data set [15] is described as follows: Metabolic stability in human liver microsomes assessed as intrinsic clearance by HPLC-MS/MS analysis. Type of data set: ADME, Microsome. For orientation: Liver microsomes are vesicles of endoplasmic reticulum, rich in cytochrome P450 enzymes.
Data set [16] can be described thus: Metabolic stability in CD-1 mouse liver microsomes assessed as half life by HPLC-MS/MS analysis. Type of data set: ADME, Microsome.
Data set [17] can be described thus: Metabolic stability in human liver S9 fraction assessed as half life by HPLC-MS/MS analysis. Type of data set: ADME, subcellular.
For a further data set, the target named is T1, CYP1A (Homo sapiens, UniProt P04798+P05177).
T1 sequence (P04798 whole entry): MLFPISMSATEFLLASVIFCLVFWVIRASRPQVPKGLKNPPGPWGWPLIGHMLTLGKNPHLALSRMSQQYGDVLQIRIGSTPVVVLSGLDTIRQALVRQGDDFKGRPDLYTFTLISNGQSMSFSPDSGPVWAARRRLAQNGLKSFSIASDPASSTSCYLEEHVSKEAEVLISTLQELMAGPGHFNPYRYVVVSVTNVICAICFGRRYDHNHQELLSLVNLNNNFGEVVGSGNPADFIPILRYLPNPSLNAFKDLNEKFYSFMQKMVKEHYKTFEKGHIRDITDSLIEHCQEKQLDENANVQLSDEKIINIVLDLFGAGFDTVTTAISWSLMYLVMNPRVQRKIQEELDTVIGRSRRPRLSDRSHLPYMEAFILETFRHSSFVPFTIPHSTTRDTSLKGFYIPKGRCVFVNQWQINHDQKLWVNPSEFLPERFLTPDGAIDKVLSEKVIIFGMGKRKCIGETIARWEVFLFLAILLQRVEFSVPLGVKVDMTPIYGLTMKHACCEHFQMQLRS
T1 sequence (P05177 whole entry): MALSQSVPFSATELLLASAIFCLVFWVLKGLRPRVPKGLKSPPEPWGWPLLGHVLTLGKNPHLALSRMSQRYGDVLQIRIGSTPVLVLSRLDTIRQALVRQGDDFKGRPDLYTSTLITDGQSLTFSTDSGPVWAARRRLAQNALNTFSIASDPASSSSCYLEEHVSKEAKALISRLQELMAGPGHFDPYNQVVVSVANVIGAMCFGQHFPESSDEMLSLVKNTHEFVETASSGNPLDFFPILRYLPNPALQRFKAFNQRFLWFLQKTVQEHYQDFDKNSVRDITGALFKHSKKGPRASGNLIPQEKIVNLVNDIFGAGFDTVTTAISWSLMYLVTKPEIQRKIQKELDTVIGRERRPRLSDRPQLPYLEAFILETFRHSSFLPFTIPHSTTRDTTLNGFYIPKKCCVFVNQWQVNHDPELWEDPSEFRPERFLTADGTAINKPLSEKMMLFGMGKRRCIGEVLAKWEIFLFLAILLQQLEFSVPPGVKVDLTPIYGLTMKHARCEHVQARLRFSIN
The experiment in a line: Inhibition of CYP1A (unknown origin). Type of data set: ADME, protein assay.

Another data set has as its target T2, Cytochrome P450 2B6 (Homo sapiens, UniProt P20813).
T2 sequence (P20813 whole entry): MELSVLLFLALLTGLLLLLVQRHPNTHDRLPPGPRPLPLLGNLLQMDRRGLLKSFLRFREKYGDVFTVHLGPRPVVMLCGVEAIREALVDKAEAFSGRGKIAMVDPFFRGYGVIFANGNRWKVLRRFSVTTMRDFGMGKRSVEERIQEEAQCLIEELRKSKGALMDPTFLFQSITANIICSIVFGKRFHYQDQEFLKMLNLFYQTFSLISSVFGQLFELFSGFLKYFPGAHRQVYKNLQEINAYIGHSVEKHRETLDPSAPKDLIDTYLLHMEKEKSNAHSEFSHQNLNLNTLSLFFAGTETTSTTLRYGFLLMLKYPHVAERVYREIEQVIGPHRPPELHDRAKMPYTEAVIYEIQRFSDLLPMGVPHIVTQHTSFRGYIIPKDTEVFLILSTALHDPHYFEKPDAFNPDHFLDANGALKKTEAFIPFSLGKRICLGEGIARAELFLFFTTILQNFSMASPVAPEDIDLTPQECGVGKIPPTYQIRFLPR
The experiment in a line: Inhibition of CYP2B6 (unknown origin). The data set is classed as ADME.

The target of another data set is Cytochrome P450 2C9 (Homo sapiens, UniProt P11712). In words: Inhibition of CYP2C9 (unknown origin). The data set is classed as ADME.
Sequence of Cytochrome P450 2C9 (P11712 whole entry): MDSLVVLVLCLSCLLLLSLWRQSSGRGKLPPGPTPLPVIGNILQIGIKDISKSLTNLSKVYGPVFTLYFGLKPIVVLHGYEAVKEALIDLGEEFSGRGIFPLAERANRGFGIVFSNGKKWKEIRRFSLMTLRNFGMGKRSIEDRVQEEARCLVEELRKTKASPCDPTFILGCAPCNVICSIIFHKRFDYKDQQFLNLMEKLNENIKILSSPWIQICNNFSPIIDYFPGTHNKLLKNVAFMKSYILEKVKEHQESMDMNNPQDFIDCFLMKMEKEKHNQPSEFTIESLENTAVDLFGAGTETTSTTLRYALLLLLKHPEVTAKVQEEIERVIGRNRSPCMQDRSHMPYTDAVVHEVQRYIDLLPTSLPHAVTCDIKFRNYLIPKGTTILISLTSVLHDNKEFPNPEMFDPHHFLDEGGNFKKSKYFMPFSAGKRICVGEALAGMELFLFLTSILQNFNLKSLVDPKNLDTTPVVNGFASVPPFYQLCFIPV
A further data set deals with Cytochrome P450 3A4 (Homo sapiens, UniProt P08684). In words: Inhibition of CYP3A4 (unknown origin). Type of data set: ADME.
Sequence of Cytochrome P450 3A4 (P08684 whole entry): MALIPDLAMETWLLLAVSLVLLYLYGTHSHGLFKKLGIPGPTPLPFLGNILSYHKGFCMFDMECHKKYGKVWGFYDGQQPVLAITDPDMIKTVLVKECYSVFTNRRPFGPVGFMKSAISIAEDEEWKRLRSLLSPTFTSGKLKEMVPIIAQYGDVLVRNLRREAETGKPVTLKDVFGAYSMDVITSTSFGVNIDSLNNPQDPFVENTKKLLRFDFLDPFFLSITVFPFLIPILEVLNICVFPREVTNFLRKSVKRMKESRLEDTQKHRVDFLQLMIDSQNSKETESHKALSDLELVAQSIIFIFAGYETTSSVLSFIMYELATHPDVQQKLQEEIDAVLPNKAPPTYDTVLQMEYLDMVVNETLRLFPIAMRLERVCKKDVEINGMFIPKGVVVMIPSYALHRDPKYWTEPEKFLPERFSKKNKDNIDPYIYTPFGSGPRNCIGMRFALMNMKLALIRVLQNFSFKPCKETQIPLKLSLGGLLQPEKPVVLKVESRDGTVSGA
The next data set addresses Cytochrome P450 3A (Homo sapiens, UniProt P08684+P20815+Q9HB55+P24462). In words: Inhibition of CYP3A in human liver microsomes using testosterone as substrate. Type of data set: ADME, Microsome.
A further data set concerns Cav1.2. The experiment in a line: Antagonist activity at hCav1.2 expressed in HEK293 cells by Electrophysiology. The data set is classed as toxicity, cell-based. The conditions noted are these: human, HEK293 cells expressing hCav1.2.

SMILES strings stand for the structures. Active and inactive are the calls of the source. No cut-off for these calls is given here.

The EC50 is the midpoint of the concentration-response curve. Broadly, the Tmax is the time from dosing to the highest level. Broadly, the MRT is a mean duration of stay, worked out from the concentration-time curve. One may read the IC50 as the concentration that inhibits the measured activity by half. Turning to `CC1CCNc2c(C(=O)NC/C=C/S(C)(=O)=O)cccc21` (stereo not drawn), the EC50 with Chikungunya virus [1] is 0.39 µM. For the same molecule, the C0 in data set [2] was 966.5 ng/mL. Further, the t1/2 in data set [3] is 0.83 h; in [16], > 2 h; in [17], 1.73 h. In data set [4], the Tmax was found to be 4 h. The molecule also came in with an MRT in data set [5] of 4.25 h. Besides, the Activity in data set [6] is -1%; in the data set with Chikungunya virus [9], 23.7%; with Chikungunya virus [10] it was 5.8; in data set [11], 18 mg/dL; in [12] it was 0.35 mg/dL. Besides, the Survival result in the data set on Chikungunya virus [7] and with Chikungunya virus [8] was “Active” in each case. Moreover, the inhibition result in data set [13] was “Dose-Dependent Effect”. The outcome in the data set on Chikungunya virus [14] was Active. Also, the CLH in data set [15] is < 57.8 µL/min/mg. In addition, the IC50 against CYP1A is > 100 µM; against Cytochrome P450 2B6 it was > 100 µM; against Cytochrome P450 2C9 it was > 100 µM; against Cytochrome P450 3A4, > 100 µM; at Cytochrome P450 3A it was < 0.03 µM; in the data set on Cav1.2, > 100 µM.

These data come from ChEMBL document CHEMBL6071156 (Eur J Med Chem, 2024).
